Test results published in ChEMBL document CHEMBL3244355, “Quinolone antimicrobial agents. 2. Methylenedioxy positional isomers of oxolinic acid” (1979).
≈ marks a conversion by molar mass, not a printed value.

Key:
[1] = tested on: Enterococcus faecalis; experiment: Antimicrobial activity against Streptococcus faecalis ATCC 8043 assessed as growth inhibition by agar dilution-streak method; format: functional
[2] = tested on: Pseudomonas aeruginosa; experiment: Antimicrobial activity against Pseudomonas aeruginosa BMH 1 assessed as growth inhibition by agar dilution-streak method; format: functional
[3] = tested on: Escherichia coli; experiment: Antimicrobial activity against Escherichia coli ATCC 26 assessed as growth inhibition by agar dilution-streak method; format: functional
[4] = tested on: Acinetobacter sp.; experiment: Antimicrobial activity against Acinetobacter sp. 2347 assessed as growth inhibition by agar dilution-streak method; format: functional
[5] = tested on: Shigella sonnei; experiment: Antimicrobial activity against Shigella sonnei ATCC 9290 assessed as growth inhibition by agar dilution-streak method; format: functional
[6] = tested on: Klebsiella pneumoniae; experiment: Antimicrobial activity against Klebsiella pneumoniae ATCC 8045 assessed as growth inhibition by agar dilution-streak method; format: functional
[7] = tested on: Proteus mirabilis; experiment: Antimicrobial activity against Proteus mirabilis Finland 9 assessed as growth inhibition by agar dilution-streak method; format: functional
[8] = tested on: Serratia marcescens; experiment: Antimicrobial activity against Serratia marcescens ATCC 4003 assessed as growth inhibition by agar dilution-streak method; format: functional
[9] = tested on: Proteus vulgaris; experiment: Antimicrobial activity against Proteus vulgaris ATCC 6897 assessed as growth inhibition by agar dilution-streak method; format: functional
[10] = tested on: Salmonella typhi; experiment: Antimicrobial activity against Salmonella typhi ATCC 9992 assessed as growth inhibition by agar dilution-streak method; format: functional, Salmonella enterica subsp. enterica serovar Typhi; conditions: Salmonella enterica
[11] = tested on: Staphylococcus aureus; experiment: Antimicrobial activity against Staphylococcus aureus ATCC 6538P assessed as growth inhibition by agar dilution-streak method; format: functional

SMILES	MIC [1]	MIC [2]	MIC [3]	MIC [4]	MIC [5]	MIC [6]	MIC [7]	MIC [8]	MIC [9]	MIC [10]	MIC [11]
CCn1cc(C(=O)O)c(=O)c2cc3c(cc21)OCO3 [OXOLINIC ACID]	25 µg/mL (≈ 95.7 µM)	12.5 µg/mL (≈ 47.9 µM)	0.1 µg/mL (≈ 0.383 µM)	0.4 µg/mL (≈ 1.53 µM)	0.2 µg/mL (≈ 0.766 µM)	> 0.05 µg/mL	0.78 µg/mL (≈ 2.99 µM)	0.1 µg/mL (≈ 0.383 µM)	> 0.05 µg/mL	0.2 µg/mL (≈ 0.766 µM)	0.78 µg/mL (≈ 2.99 µM)
CCn1cc(C(=O)O)c(=O)c2c3c(ccc21)OCO3	> 100 µg/mL	> 100 µg/mL	> 100 µg/mL	> 100 µg/mL	> 100 µg/mL	25 µg/mL (≈ 95.7 µM)	> 100 µg/mL	> 100 µg/mL	100 µg/mL (≈ 383 µM)	> 100 µg/mL	> 100 µg/mL
CCn1cc(C(=O)O)c(=O)c2ccc3c(c21)OCO3	> 100 µg/mL	> 100 µg/mL	6.25 µg/mL (≈ 23.9 µM)	6.25 µg/mL (≈ 23.9 µM)	3.13 µg/mL (≈ 12 µM)	1.56 µg/mL (≈ 5.97 µM)	50 µg/mL (≈ 191 µM)	3.13 µg/mL (≈ 12 µM)	3.13 µg/mL (≈ 12 µM)	12.5 µg/mL (≈ 47.9 µM)	25 µg/mL (≈ 95.7 µM)
